Laboratory results taken from patent US11065245B2, “Priming of cancer cells with low dose naltrexone” (CANCER VACCINE INSTITUTE, priority 2014, dated 2021).

Experiments:
[1] = tested on: HCT116 cells (a colorectal carcinoma cell line); test: Cell growth (MTT, cell counting, viability) with recovery (wash) phase after naltrexone; assay type: cell-based, human; details: 1 nM and 10 nM naltrexone 48 h then 24 h drug-free vs 72 h continuous
Experimental: (§1) (A) A549 cells (a lung cancer cell line) and (B) HCT116 cells (a colorectal carcinoma cell line), were cultured for 48 h in 1 nM and 10 nM (low dose) naltrexone (LDN) and in 1 μM and 10 μM (standard dose) naltrexone (NTX). Cells were either then washed and allowed to grow in drug-free medium for 24 h (wash) or continuously cultured in naltrexone for a total of 72 h (72); cell was viability assessed by absorbance readings. Effect of the wash step on HCT116 cells were also measured by (C) 3-(4,5-dimethylthiazol-2-yl)-2,5-diphenyltetrazolium bromide (MTT) colorimetric assay, (D) cell counting and (E) percentage of viable cells.
(§2) To study the effect of each agent on cell growth, cells growing exponentially were added to 96-well plates at a density of 3×10^4/well. Drugs were then added to the wells, ensuring an equal volume of 200 μl across the plate. Cell number was measured at 72 hr using a standard methylthiazoletetrazolium (MTT)-based assay without modifications. Briefly, MTT was added to each well to give a working concentration of 0.4 mg/ml, and plates returned to the incubator for a further 1 hr. After this time, the medium was aspirated off, 200 μl of DMSO was then added to each well and plates agitated gently for 5 min before measuring optical density at 540 nm in each well. […]

[2] = tested on: Bcl-2-associated death promoter (BAD) protein; test: Western blot/densitometry of cell cycle proteins in HCT116 cells; assay type: cell-based, human; details: 10 nM naltrexone (LDN), 48 h
Experimental: (§3) Methodologically, HCT116 cells were treated with NTX and LDN for 48 h before determination of cellular proteins as labelled in the figure. The intensities of each of the bands indicate the level at which these proteins were expressed, which were enumerated by density analysis.
(§4) Cells were treated with 10 μM naltrexone (NTX) or 10 nM naltrexone (LDN) for 48 hr before they were harvested, and total cellular protein was solubilised in lysis buffer and resolved by Tris-glycine electrophoresis using a 4-12% bis-tris gradient-gel. Following transfer of proteins to 0.45-lm nitrocellulose membranes, blocking was performed in 5% (w/v) nonfat milk in TTBS [0.5% (v/v) Tween-20 in TBS (50 mM Tris, 150 mM NaCl, pH 8.0)]. Primary antibody probing for the protein specified in the figure were performed overnight at 4° C. before secondary probing using horseradish peroxidase-conjugated anti-species IgG1. Bands were visualised by the ECL-plus detection system. Densitometry analysis was performed using proprietary analysis software. RNA was extracted from these cells for gene expression analysis. RNA was purified by Trizol, followed by precipitation with isopropanol. […] Equal amounts (750 ng) of cRNA were hybridised to the Illumina human HT12-v3 arrays for 18 hr and subsequently processed according to manufacturer's instructions before scanning on an Illumina BeadArray Reader. […]

[3] = tested on: phosphorylated AKT; test: as above; assay type: cell-based, human; details: 10 nM naltrexone (LDN), 48 h
Experimental: as §3, §4

[4] = tested on: murine neuroblastoma; details: murine xenograft model; cited from earlier work
[5] = tested on: A549 cells (a lung cancer cell line); test: Cell growth (MTT) with recovery (wash) phase after naltrexone; assay type: cell-based; details: 1 nM and 10 nM naltrexone 48 h then 24 h drug-free vs 72 h continuous
Experimental: as §1, §2

[6] = tested on: human colon cancer cell growth; details: murine xenograft model; cited from earlier work
[7] = tested on: U87MG cells (glioma cell line); test: Cell growth (absorbance) with recovery (wash) phase after naltrexone; assay type: cell-based; details: naltrexone 48 h then 24 h drug-free vs 72 h continuous
Experimental: (§5) To study the effect of each agent on cell growth, cells growing exponentially were added to 96-well plates at a density of 3×10^4/well. Drugs were then added to the wells, ensuring an equal volume of 200 μl across the plate. Cell number was measured at 72 hr using a standard methylthiazoletetrazolium (MTT)-based assay without modifications. Briefly, MTT was added to each well to give a working concentration of 0.4 mg/ml, and plates returned to the incubator for a further 1 hr. After this time, the medium was aspirated off, 200 μl of DMSO was then added to each well and plates agitated gently for 5 min before measuring optical density at 540 nm in each well. The effect of recovery, where a wash step was included, was studied by removing naltrexone-containing medium and replacing this with fresh drug-free medium after 48 hr, before assessing cell number at the 72 hr time-point. Cell counting was performed by under light microscopy using staining with trypan blue to aid the discrimination of dead/dying cells. See description of FIGS. 1 and 2.

[8] = tested on: T98G cells (glioma cell line); test: as above; assay type: cell-based; details: naltrexone 48 h then 24 h drug-free vs 72 h continuous
Experimental: as §5

[9] = tested on: human ovarian cancer cells; details: short-term naltrexone exposure; cited from earlier work

SMILES: O=C1CC[C@@]2(O)[C@H]3Cc4ccc(O)c5c4[C@@]2(CCN3CC2CC2)[C@H]1O5 [LDN, morphinan-6-one, 17-(cyclopropylmethyl)-4,5-epoxy-3,14-di hydroxy-(5α)]
- cell numbers, recovery (wash) phase vs continuous administration [1]: greater reduction in cell numbers
- BAD protein level relative to untreated cells [2]: upregulated
- phosphorylated AKT level relative to untreated cells [3]: downregulated
- growth of murine neuroblastoma [4]: inhibition
- cell numbers, recovery (wash) phase vs continuous administration [5]: greater reduction in cell numbers
- growth of human colon cancer cells [6]: inhibition
- cell numbers, recovery (wash) phase vs continuous administration [7]: greater reduction in cell numbers
- cell numbers, recovery (wash) phase vs continuous administration [8]: greater reduction in cell numbers
- DNA synthesis [9]: decrease in DNA synthesis
